Counter-ions that a name gives are not always drawn.
Molecular target: recombinant human HPK1 (Homo sapiens (Human), UniProt Q92918)
Experiment: HPK1 kinase assay (Promega ADP-Glo kinase assay)
Type: biochemical
Settings: In vitro activity against HPK1, 5 ng HPK1, MBP substrate, ATP 25 μM, 30° C. 40 minutes
Summary of the method: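 IC50 was derived from percent inhibition across a range of compound concentrations. Recombinant human HPK1 (5 ng) phosphorylated MBP for 40 min at 30 °C in Tris buffer pH 7.5 with 20 mM MgCl2, with ATP added as a 25 µM solution and 0.5% DMSO. ADP formed was read by ADP-Glo luminescence.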

Sequence of recombinant human HPK1 (Q92918 whole entry): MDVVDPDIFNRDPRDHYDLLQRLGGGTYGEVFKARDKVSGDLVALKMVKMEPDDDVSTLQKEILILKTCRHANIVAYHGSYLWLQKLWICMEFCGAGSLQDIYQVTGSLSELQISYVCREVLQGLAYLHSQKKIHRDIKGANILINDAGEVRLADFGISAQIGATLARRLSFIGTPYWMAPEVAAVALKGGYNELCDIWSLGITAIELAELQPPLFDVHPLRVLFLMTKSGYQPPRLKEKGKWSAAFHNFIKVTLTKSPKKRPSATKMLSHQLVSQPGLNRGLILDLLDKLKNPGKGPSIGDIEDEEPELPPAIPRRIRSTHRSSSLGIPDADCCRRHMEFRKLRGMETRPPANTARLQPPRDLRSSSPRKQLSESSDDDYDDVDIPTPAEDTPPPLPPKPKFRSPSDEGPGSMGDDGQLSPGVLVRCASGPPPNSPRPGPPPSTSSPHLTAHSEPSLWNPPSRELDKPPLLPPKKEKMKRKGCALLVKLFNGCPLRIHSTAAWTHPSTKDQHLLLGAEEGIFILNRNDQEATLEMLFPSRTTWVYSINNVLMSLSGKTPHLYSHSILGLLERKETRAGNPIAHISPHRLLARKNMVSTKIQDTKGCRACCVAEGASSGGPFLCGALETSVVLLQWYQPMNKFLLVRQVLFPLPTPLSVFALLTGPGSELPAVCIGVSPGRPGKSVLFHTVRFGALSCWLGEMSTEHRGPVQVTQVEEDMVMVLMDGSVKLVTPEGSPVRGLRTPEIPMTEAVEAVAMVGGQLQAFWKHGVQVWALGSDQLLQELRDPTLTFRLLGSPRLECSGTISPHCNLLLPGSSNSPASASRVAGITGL

IC50 [nM]	SMILES
< 100	CC(C)Nc1c(F)c(Cl)c(-c2cn3cc(NC(=O)OC4CCC4)nc3cn2)c2cn[nH]c12 [Example 126, cyclobutyl (6-(5-chloro-6-fluoro-7-(isopropylamino)-1H-indazol-4-yl)imidazo[1,2-a]pyrazin-2-yl)carbamate formate]
501 to 1000	CC(=O)N(C)c1cn2cc(-c3c(Cl)c(F)c(NC(C)C)c4[nH]ncc34)ncc2n1 [Example 102, N-(6-(5-chloro-6-fluoro-7-(isopropylamino)-1H-indazol-4-yl)imidazo[1,2-a]pyrazin-2-yl)-N-methylacetamide]
< 100	CC(C)Nc1c(F)c(Cl)c(-c2cn3cc(NC(=O)Cc4cccnc4)nc3cn2)c2cn[nH]c12 [Example 89, N-(6-(5-chloro-6-fluoro-7-(isopropylamino)-1H-indazol-4-yl)imidazo[1,2-a]pyrazin-2-yl)-2-(pyridin-3-yl)acetamide]
< 100	CC(C)Nc1c(F)c(Cl)c(-c2cn3cc(NC(=O)[C@@H]4C[C@@H]4C#N)nc3cn2)c2cn[nH]c12 [Example 51, (1R,2S)-N-(6-(5-chloro-6-fluoro-7-(isopropylamino)-1H-indazol-4-yl)imidazo[1,2-a]pyrazin-2-yl)-2-cyanocyclopropane-1-carboxamide]
< 100	CC(C)Nc1c(F)c(Cl)c(-c2cn3cc(NC(=O)[C@@H]4C[C@@H]4C(=O)O)nc3cn2)c2cn[nH]c12 [Example 20, (1S,2R)-2-((6-(5-chloro-6-fluoro-7-(isopropylamino)-1H-indazol-4-yl)imidazo[1,2-a]pyrazin-2-yl)carbamoyl)cyclopropane-1-carboxylic acid]
< 100	CCCCC(=O)Nc1cn2cc(-c3c(Cl)c(F)c(NC(C)C)c4[nH]ncc34)ncc2n1 [Example 117, N-(6-(5-chloro-6-fluoro-7-(isopropylamino)-1H-indazol-4-yl)imidazo[1,2-a]pyrazin-2-yl)pentanamide]
< 100	CC(C)Nc1c(F)c(C(F)(F)F)c(-c2cn3cc(NC(=O)[C@@H]4C[C@@H]4CO)nc3cn2)c2cn[nH]c12 [Example 104, (1R,2S)-N-(6-(6-fluoro-7-(isopropylamino)-5-(trifluoromethyl)-1H-indazol-4-yl)imidazo[1,2-a]pyrazin-2-yl)-2-(hydroxymethyl)cyclopropane-1-carboxamide]
501 to 1000	CC(C)Nc1c(F)c(Cl)c(-c2cn3cc(NC(=O)[C@@H](C)N(C)C)nc3cn2)c2cn[nH]c12 [Example 106, (R)-N-(6-(5-chloro-6-fluoro-7-(isopropylamino)-1H-indazol-4-yl)imidazo[1,2-a]pyrazin-2-yl)-2-(dimethylamino)propanamide]
< 100	CC(C)Nc1c(F)c(Cl)c(-c2cn3cc(NC=O)nc3cn2)c2cn[nH]c12 [Example 112, N-(6-(5-chloro-6-fluoro-7-(isopropylamino)-1H-indazol-4-yl)imidazo[1,2-a]pyrazin-2-yl)formamide]
< 100	CC(C)Nc1c(F)c(Cl)c(-c2cn3cc(NC(=O)C4(N)CC4)nc3cn2)c2cn[nH]c12 [Example 78, 1-amino-N-(6-(5-chloro-6-fluoro-7-(isopropylamino)-1H-indazol-4-yl)imidazo[1,2-a]pyrazin-2-yl)cyclopropane-1-carboxamide]
< 100	CCN(CC)C(=O)[C@H]1C[C@H]1C(=O)Nc1cn2cc(-c3c(Cl)c(F)c(NC(C)C)c4[nH]ncc34)ncc2n1 [Example 26, (1R,2S)-N1-(6-(5-chloro-6-fluoro-7-(isopropylamino)-1H-indazol-4-yl)imidazo[1,2-a]pyrazin-2-yl)-N2,N2-diethylcyclopropane-1,2-dicarboxamide]
< 100	COC(=O)[C@H]1C[C@H]1C(=O)Nc1cn2cc(-c3c(Cl)c(F)c(NC(C)C)c4[nH]ncc34)ncc2n1 [Example 32, methyl (1S,2R)-2-((6-(5-chloro-6-fluoro-7-(isopropylamino)-1H-indazol-4-yl)imidazo[1,2-a]pyrazin-2-yl)carbamoyl)cyclopropane-1-carboxylate]
501 to 1000	CCC(=O)N1CC(Oc2c(F)c(Cl)c(-c3cn4cc(NC(C)=O)nc4cn3)c3cn[nH]c23)C1 [Example 149, N-(6-(5-chloro-6-fluoro-7-((1-propionylazetidin-3-yl)oxy)-1H-indazol-4-yl)imidazo[1,2-a]pyrazin-2-yl)acetamide]
< 100	CCNC(=O)[C@H]1C[C@H]1C(=O)Nc1cn2cc(-c3c(Cl)c(F)c(NC(C)C)c4[nH]ncc34)ncc2n1 [Example 29, (1R,2S)-N1-(6-(5-chloro-6-fluoro-7-(isopropylamino)-1H-indazol-4-yl)imidazo[1,2-a]pyrazin-2-yl)-N2-ethylcyclopropane-1,2-dicarboxamide]

Further lines, the molecule ahead of its results:

SMILES	IC50 [nM]
O=C(Nc1cn2cc(-c3c(C(F)F)c(F)c(C(C4CC4)N4C(=O)c5ccccc5C4=O)c4[nH]ncc34)ncc2n1)[C@@H]1C[C@@H]1F (stereo partly drawn) [Example 48, (1S,2S)-N-(6-(7-(cyclopropyl(1,3-dioxoisoindolin-2-yl)methyl)-5-(difluoromethyl)-6-fluoro-1H-indazol-4-yl)imidazo[1,2-a]pyrazin-2-yl)-2-fluorocyclopropane-1-carboxamide]	< 100
CC(=O)NCC(C)c1c(F)c(C(F)(F)F)c(-c2cn3cc(NC(=O)[C@@H]4C[C@@H]4F)nc3cn2)c2cn[nH]c12 (stereo partly drawn) [Example 99, (1S,2S)-N-(6-(7-(1-acetamidopropan-2-yl)-6-fluoro-5-(trifluoromethyl)-1H-indazol-4-yl)imidazo[1,2-a]pyrazin-2-yl)-2-fluorocyclopropane-1-carboxamide]	< 100
O=C(Nc1cn2cc(-c3c(C(F)(F)F)c(F)c(C(O)C4CC4)c4[nH]ncc34)ncc2n1)[C@@H]1C[C@@H]1CO (stereo partly drawn) [Example 118, (1R,2S)-N-(6-(7-(cyclopropyl(hydroxy)methyl)-6-fluoro-5-(trifluoromethyl)-1H-indazol-4-yl)imidazo[1,2-a]pyrazin-2-yl)-2-(hydroxymethyl)cyclopropane-1-carboxamide]	< 100
CN(C)c1c(F)c(C(F)(F)F)c(-c2cn3cc(NC(=O)[C@H]4C[C@H]4F)nc3cn2)c2cn[nH]c12 [Example 27, (1R,2R)-N-(6-(7-(dimethylamino)-6-fluoro-5-(trifluoromethyl)-1H-indazol-4-yl)imidazo[1,2-a]pyrazin-2-yl)-2-fluorocyclopropane-1-carboxamide]	< 100
NC(c1c(F)c(C(F)(F)F)c(-c2cn3cc(NC(=O)[C@@H]4C[C@@H]4F)nc3cn2)c2cn[nH]c12)C1CC1 (stereo partly drawn) [Example 44, (1S,2S)-N-(6-(7-(amino(cyclopropyl)methyl)-6-fluoro-5-(trifluoromethyl)-1H-indazol-4-yl)imidazo[1,2-a]pyrazin-2-yl)-2-fluorocyclopropane-1-carboxamide]	< 100
CC(NC=O)c1c(F)c(C(F)(F)F)c(-c2cn3cc(NC(=O)[C@@H]4C[C@@H]4F)nc3cn2)c2cn[nH]c12 (stereo partly drawn) [Example 96, (1S,2S)-2-fluoro-N-(6-(6-fluoro-7-(1-formamidoethyl)-5-(trifluoromethyl)-1H-indazol-4-yl)imidazo[1,2-a]pyrazin-2-yl)cyclopropane-1-carboxamide]	< 100
CC(=O)Nc1cn2cc(-c3c(Cl)c(F)c(CN4CCC(O)C4)c4[nH]ncc34)ncc2n1 (stereo not drawn) [Example 151, N-(6-(5-chloro-6-fluoro-7-((3-hydroxypyrrolidin-1-yl)methyl)-1H-indazol-4-yl)imidazo[1,2-a]pyrazin-2-yl)acetamide]	501 to 1000
Cc1c(F)c(C(C)N2C(=O)c3ccccc3C2=O)c2[nH]ncc2c1-c1cn2cc(NC(=O)[C@@H]3C[C@@H]3F)nc2cn1 (stereo partly drawn) [Example 68, (1S,2S)-N-(6-(7-(1-(1,3-dioxoisoindolin-2-yl)ethyl)-6-fluoro-5-methyl-1H-indazol-4-yl)imidazo[1,2-a]pyrazin-2-yl)-2-fluorocyclopropane-1-carboxamide]	101 to 500
CN(C)c1c(F)c(C(F)(F)F)c(-c2cn3cc(NC(=O)[C@H]4C[C@@H]4F)nc3cn2)c2cn[nH]c12 [Example 31, (1R,2S)-N-(6-(7-(dimethylamino)-6-fluoro-5-(trifluoromethyl)-1H-indazol-4-yl)imidazo[1,2-a]pyrazin-2-yl)-2-fluorocyclopropane-1-carboxamide]	< 100
CC(N[S+]([O-])C(C)(C)C)c1c(F)c(Cl)c(-c2cn3cc(NC(=O)[C@@H]4C[C@@H]4F)nc3cn2)c2cn[nH]c12 (stereo partly drawn) [Example 86, (1S,2S)-N-(6-(7-(1-((tert-butylsulfinyl)amino)ethyl)-5-chloro-6-fluoro-1H-indazol-4-yl)imidazo[1,2-a]pyrazin-2-yl)-2-fluorocyclopropane-1-carboxamide]	< 100
Cc1c(F)c(C2=CC(=O)CC2)c2[nH]ncc2c1-c1cn2cc(NC(=O)[C@@H]3C[C@@H]3F)nc2cn1 [Example 7, (1S,2S)-2-fluoro-N-(6-(6-fluoro-5-methyl-7-(3-oxocyclopent-1-en-1-yl)-1H-indazol-4-yl)imidazo[1,2-a]pyrazin-2-yl)cyclopropane-1-carboxamide]	101 to 500
CC(=O)NC(c1c(F)c(C(F)F)c(-c2cn3cc(NC(=O)[C@@H]4C[C@@H]4F)nc3cn2)c2cn[nH]c12)C1CC1 (stereo partly drawn) [Example 54, (1S,2S)-N-(6-(7-(acetamido(cyclopropyl)methyl)-5-(difluoromethyl)-6-fluoro-1H-indazol-4-yl)imidazo[1,2-a]pyrazin-2-yl)-2-fluorocyclopropane-1-carboxamide]	< 100
C[C@H](N[S@@+]([O-])C(C)(C)C)c1c(F)c(Cl)c(-c2cn3cc(NC(=O)[C@@H]4C[C@@H]4F)nc3cn2)c2cn[nH]c12 [Example 132, (1S,2S)-N-(6-(7-((S)-1-(((S)-tert-butylsulfinyl)amino)ethyl)-5-chloro-6-fluoro-1H-indazol-4-yl)imidazo[1,2-a]pyrazin-2-yl)-2-fluorocyclopropane-1-carboxamide]	< 100
